Data as given in US5554620A, “Substituted 6,11-ethano-6,11-dihydrobenzo[b] quinolizinium salts and compositions and methods of use thereof” (Sterling Winthrop Inc., priority 1994, dated 1996).

Columns and labels:
[1] = tested on: cultured cortical neurons; experiment: Antagonism of NMDA-induced neurotoxicity in cultured cortical neurons (LDH release); format: cell-based, mouse (Swiss-Webster); conditions: Mus musculus, Cortical neurone, 500 μM NMDA, 30 min exposure; LDH 24 h later
Protocol: Antagonism of NMDA-induced Neurotoxicity in Cultured Neurons
Preparation of Cultured Cortical Neurons
Pregnant, Swiss-Webster mice were obtained from Taconic Farms (Germantown, New York) and sacrificed 16 days post conception. Fetuses were removed and placed in a sterile dish containing Hank's balanced salt solution (HBSS), pH 7.4. Brain cortices were dissected, meninges were removed, the tissue was minced and placed into a solution of HBSS containing 0.25% (w/v) trypsin at 37° C. for 15 minutes. Tissue was then triturated with a sterile pasteur pipet, diluted with minimal essential media (Gibco 330-1430), pH 7.4, supplemented with 10% horse serum, 10% fetal calf serum, 2 mM 1-glutamine, 21 mM d-glucose, 2.2 g/L sodium bicarbonate, 1000 U/mL penicillin, and 1,000 μg/mL streptomycin. Cells were plated onto Falcon primaria 96 well plates at a final density of 50,000 cells/well and incubated at 37 °C in the presence of 5% (v/v) carbon dioxide. After 5 days, plating media was replaced with maintenance media containing minimal essential media (Gibco 330-1430), pH 7.4, supplemented with 10% horse serum, […], 21 mM d-glucose, 2.2 g/L sodium bicarbonate, 1,000 U/mL penicillin, 1,000 μg/mL streptomycin, and 10 μM cytosine arabinoside. On days 7 and 10, media was replaced with maintenance media as above lacking the cytosine arabinoside. Experiments were conducted on day 13.
Neuroprotection Assessment
Day 13 cultured cortical neurons were washed twice with minimal essential media, pH 7.4 and then exposed for 30 minutes to 500 μM N-methyl-D-aspartic acid (NMDA) with or without varying concentrations of test agents. […] MK-801 and test agents were prepared in minimal essential media supplemented with 21 mM d-glucose and 2.2 g/L sodium bicarbonate (MEM). After 30 minutes, media was replaced with MEM alone. Exposure of neurons to test agents was limited to the NMDA treatment period. Twenty-four hours after removal of NMDA, an aliquot of media from each well was removed for assessment of cell injury by determining lactate dehydrogenase (LDH) activity by the method of Wroblewski and LaDue Proc. Soc. Exp. Biol. Med. 1955, 90, 210-213. The results are expressed as an IC50 (in nM) value (concentration causing 50% inhibition) for the antagonism of NMDA--inducedneurotoxicity. Table 3 summarizes the results obtained from the testing of representative compounds of the invention in the [^3 H]TCP radioreceptor assay as well as in the antagonism of NMDA-induced neurotoxicity in cultured neurons.

PCP receptor = experiment: [3H]TCP radioreceptor assay (binding to PCP recognition sites); parameters: species or system rat (male Sprague-Dawley, whole brain); conditions: [3H]TCP approx. 1 nM, rat brain membranes; mean of at least two determinations
In short: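 Rat whole-brain membranes (Tris-HCl, pH 7.7), 0.5 mg protein/tube, incubated with ~1 nM [3H]TCP for 25 min at room temperature; non-specific binding defined with 100 μM PCP. Bound ligand collected by filtration and counted by scintillation; Ki from at least two determinations, or % inhibition at 10 μM.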

rat ischemia model = experiment: Middle cerebral artery occlusion (MCAo) model with reperfusion; format: in vivo, rat (male Long Evans hooded and male Sprague-Dawley); conditions: i.v. infusion started 30 min before occlusion
Protocol: Middle Cerebral Artery Occlusion (MCAo) Model with Reperfusion
A 3-vessel rat ischemia model similar to those that have been extensively described in the literature (e.g. Stroke 17, 738-743 (1986), Stroke 20, 513-518 (1989)) was utilized. Under isoflurane anesthesia the right middle cerebral artery (via an approach through the temporalis muscle) and both common carotid arteries were reversibly occluded for varying durations between 60 minutes and 120 minutes. Both male Long Evans hooded rats and male Sprague-Dawley rats weighing between 300 and 420 grams were used. The animals' temperature was maintained throughout the study with heat lamps. A femoral vein and the ipsilateral femoral artery were cannulated for intravenous infusion and arterial blood pressure measurements and blood samples. Infusions of the test compounds were initiated 30 minutes prior to occlusion at a rate of 40 microliters per minute. After reinitiation of blood flow the animals were allowed to regain consciousness. Six hours post-initiation of ischemia the animals were sacrificed and the extent of neuronal damage was quantified with TTC staining. The results are expressed as a percent inhibition (±SEM) of infarct and penumbra region.

Compound | IC50 [1] | Ki (PCP receptor) | % Inhibition (± SEM) of infarct and penumbra region (rat ischemia model; 0.01 mg test compound/kg/min) | % Inhibition (± SEM) of infarct and penumbra region (rat ischemia model; 0.03 mg test compound/kg/min) | % Inhibition (± SEM) of infarct and penumbra region (rat ischemia model; 0.1 mg test compound/kg/min)
c1ccc2c(c1)C1CC(c3ccoc3)(c3ccoc3)C2c2cccc[n+]21 (single isomer, unassigned; (+)) [Example 40(b), (+)-6,11-ethano-12,12-di(3-furanyl)-6,11-dihydrobenzo[b]quinolizinium chloride 3/2 hydrate] | 20 nM | 1.66 nM | 1 ± 31% | 49 ± 25% | 47 ± 18%
[Cl-].c1ccc2c(c1)C1CC(c3ccoc3)(c3ccoc3)C2c2cccc[n+]21 (stereo not drawn) [39(c), 6,11-ethano-12,12-di(3-furanyl)-6,11-dihydrobenzo[b]quinolizinium chloride] | 45.4 nM | 1.79 nM | – | 20 ± 7% | 34 ± 6%
